The CheMixHub viscosity set

Assay: xn = mol fraction of the nth substance listed

CCCCCCCCCCCC + CCCCCC
Conditions | viscosity [mPa·s]
293.15 K, 100 kPa, x2 = 0.0986 | 1.294
293.15 K, 100 kPa, x2 = 0.2 | 1.18
293.15 K, 100 kPa, x2 = 0.2024 | 1.137
293.15 K, 100 kPa, x2 = 0.2991 | 1.003
293.15 K, 100 kPa, x2 = 0.4 | 0.89
293.15 K, 100 kPa, x2 = 0.4003 | 0.864
293.15 K, 100 kPa, x2 = 0.5036 | 0.746
293.15 K, 100 kPa, x2 = 0.6 | 0.67
293.15 K, 100 kPa, x2 = 0.6025 | 0.635
293.15 K, 100 kPa, x2 = 0.7016 | 0.538
293.15 K, 100 kPa, x2 = 0.8 | 0.47
293.15 K, 100 kPa, x2 = 0.8003 | 0.453
293.15 K, 100 kPa, x2 = 0.899 | 0.382
298.1 K, 100 kPa, x2 = 0.5 | 0.719
298.15 K, 100 kPa, x2 = 0.0986 | 1.188
298.15 K, 100 kPa, x2 = 0.2024 | 1.049
298.15 K, 100 kPa, x2 = 0.2991 | 0.929
298.15 K, 100 kPa, x2 = 0.4003 | 0.803
298.15 K, 100 kPa, x2 = 0.5036 | 0.697
298.15 K, 100 kPa, x2 = 0.6025 | 0.596
298.15 K, 100 kPa, x2 = 0.7016 | 0.508
298.15 K, 100 kPa, x2 = 0.8003 | 0.429
298.15 K, 100 kPa, x2 = 0.899 | 0.363
298.15 K, 101 kPa, x1 = 0.1924 | 0.4343
298.15 K, 101 kPa, x1 = 0.4248 | 0.6351
298.15 K, 101 kPa, x1 = 0.605 | 0.8243
298.15 K, 101 kPa, x1 = 0.8064 | 1.067
298.15 K, 101.33 kPa, x1 = 0.0232 | 0.3154
298.15 K, 101.33 kPa, x1 = 0.0783 | 0.3506
298.15 K, 101.33 kPa, x1 = 0.1615 | 0.4067
298.15 K, 101.33 kPa, x1 = 0.1736 | 0.4183
298.15 K, 101.33 kPa, x1 = 0.3209 | 0.5387
298.15 K, 101.33 kPa, x1 = 0.411 | 0.6213
298.15 K, 101.33 kPa, x1 = 0.6005 | 0.8244
298.15 K, 101.33 kPa, x1 = 0.6932 | 0.9294
298.15 K, 101.33 kPa, x1 = 0.8557 | 1.137
298.15 K, 101.33 kPa, x1 = 0.9271 | 1.241
298.15 K, 101.33 kPa, x2 = 0.1128 | 1.196
298.15 K, 101.33 kPa, x2 = 0.2137 | 1.047
298.15 K, 101.33 kPa, x2 = 0.3024 | 0.9328
298.15 K, 101.33 kPa, x2 = 0.4043 | 0.8164
298.15 K, 101.33 kPa, x2 = 0.5067 | 0.7076
298.15 K, 101.33 kPa, x2 = 0.6062 | 0.6105
298.15 K, 101.33 kPa, x2 = 0.7222 | 0.5009
298.15 K, 101.33 kPa, x2 = 0.8039 | 0.4331
298.15 K, 101.33 kPa, x2 = 0.9037 | 0.3631
298.27 K, 101.3 kPa, x1 = 0.4998 | 0.7168
298.47 K, 101.3 kPa, x1 = 0.2499 | 0.4774
298.47 K, 101.3 kPa, x1 = 0.7481 | 1.002
303.15 K, 100 kPa, x2 = 0.0986 | 1.095
303.15 K, 100 kPa, x2 = 0.2024 | 0.971
303.15 K, 100 kPa, x2 = 0.2991 | 0.864
303.15 K, 100 kPa, x2 = 0.4003 | 0.75
303.15 K, 100 kPa, x2 = 0.5036 | 0.653
303.15 K, 100 kPa, x2 = 0.6025 | 0.561
303.15 K, 100 kPa, x2 = 0.7016 | 0.479
303.15 K, 100 kPa, x2 = 0.8003 | 0.407
303.15 K, 100 kPa, x2 = 0.899 | 0.352
303.57 K, 101.3 kPa, x1 = 0.7481 | 0.9319
303.58 K, 101.3 kPa, x1 = 0.2499 | 0.4512
308.12 K, 101.3 kPa, x1 = 0.7481 | 0.8716
308.15 K, 100 kPa, x2 = 0.0986 | 1.013
308.15 K, 100 kPa, x2 = 0.2024 | 0.902
308.15 K, 100 kPa, x2 = 0.2991 | 0.805
308.15 K, 100 kPa, x2 = 0.4003 | 0.702
308.15 K, 100 kPa, x2 = 0.5036 | 0.613
308.15 K, 100 kPa, x2 = 0.6025 | 0.529
308.15 K, 100 kPa, x2 = 0.7016 | 0.453
308.15 K, 100 kPa, x2 = 0.8003 | 0.388
308.15 K, 100 kPa, x2 = 0.899 | 0.334
308.15 K, 101.33 kPa, x1 = 0.0232 | 0.2875
308.15 K, 101.33 kPa, x1 = 0.0783 | 0.3133
308.15 K, 101.33 kPa, x1 = 0.1615 | 0.3656
308.15 K, 101.33 kPa, x1 = 0.1736 | 0.3742
308.15 K, 101.33 kPa, x1 = 0.3209 | 0.4799
308.15 K, 101.33 kPa, x1 = 0.411 | 0.5504
308.15 K, 101.33 kPa, x1 = 0.6005 | 0.7191
308.15 K, 101.33 kPa, x1 = 0.8557 | 0.9709
308.15 K, 101.33 kPa, x1 = 0.9271 | 1.054
308.18 K, 101.3 kPa, x1 = 0.4998 | 0.6313
308.23 K, 101.3 kPa, x1 = 0.2499 | 0.4292
311.42 K, 101.3 kPa, x1 = 0.2499 | 0.4144
313.15 K, 100 kPa, x2 = 0.0986 | 0.941
313.15 K, 100 kPa, x2 = 0.2 | 0.87
313.15 K, 100 kPa, x2 = 0.2024 | 0.841
313.15 K, 100 kPa, x2 = 0.2991 | 0.753
313.15 K, 100 kPa, x2 = 0.4 | 0.69
313.15 K, 100 kPa, x2 = 0.4003 | 0.658
313.15 K, 100 kPa, x2 = 0.5036 | 0.578
313.15 K, 100 kPa, x2 = 0.6 | 0.53
313.15 K, 100 kPa, x2 = 0.6025 | 0.5
313.15 K, 100 kPa, x2 = 0.7016 | 0.43
313.15 K, 100 kPa, x2 = 0.8 | 0.38
313.15 K, 100 kPa, x2 = 0.8003 | 0.37
313.15 K, 100 kPa, x2 = 0.899 | 0.317
318.15 K, 100 kPa, x2 = 0.0986 | 0.876
318.15 K, 100 kPa, x2 = 0.2024 | 0.786
318.15 K, 100 kPa, x2 = 0.2991 | 0.706
318.15 K, 100 kPa, x2 = 0.4003 | 0.619
318.15 K, 100 kPa, x2 = 0.5036 | 0.545
318.15 K, 100 kPa, x2 = 0.6025 | 0.474
318.15 K, 100 kPa, x2 = 0.7016 | 0.409
318.15 K, 100 kPa, x2 = 0.8003 | 0.359
318.15 K, 100 kPa, x2 = 0.899 | 0.302
322.68 K, 101.3 kPa, x1 = 0.4998 | 0.5301
323.08 K, 101.3 kPa, x1 = 0.2499 | 0.3672
323.15 K, 100 kPa, x2 = 0.0986 | 0.819
323.15 K, 100 kPa, x2 = 0.2024 | 0.736
323.15 K, 100 kPa, x2 = 0.2991 | 0.663
323.15 K, 100 kPa, x2 = 0.4003 | 0.584
323.15 K, 100 kPa, x2 = 0.5036 | 0.515
323.15 K, 100 kPa, x2 = 0.6025 | 0.45
323.15 K, 100 kPa, x2 = 0.7016 | 0.389
323.15 K, 100 kPa, x2 = 0.8003 | 0.342
323.15 K, 100 kPa, x2 = 0.899 | 0.287

OCCOCCOCCO + CN(C)C=O
viscosity [mPa·s], 101 kPa
Conditions | 293.15 K | 298.15 K | 303.15 K | 308.15 K | 313.15 K | 318.15 K
x1 = 0.025 | 1 | 0.933 | 0.868 | 0.847 | 0.768 | 0.727
x1 = 0.0513 | 1.15 | 1.07 | 0.987 | 0.952 | 0.876 | 0.815
x1 = 0.0791 | 1.33 | 1.24 | 1.13 | 1.08 | 0.997 | 0.921
x1 = 0.1085 | 1.54 | 1.42 | 1.31 | 1.22 | 1.15 | 1.05
x1 = 0.1396 | 1.81 | 1.68 | 1.51 | 1.39 | 1.32 | 1.21
x1 = 0.1726 | 2.12 | 1.95 | 1.76 | 1.6 | 1.52 | –
x1 = 0.2077 | 2.53 | 2.3 | 2.07 | 1.85 | 1.76 | –
x1 = 0.245 | 3.02 | 2.74 | 2.44 | 2.16 | 2.06 | –
x1 = 0.2848 | 3.64 | 3.27 | 2.88 | 2.53 | 2.41 | –
x1 = 0.3274 | 4.45 | 3.93 | 3.45 | 3 | 2.85 | –
x1 = 0.373 | 5.37 | 4.74 | 4.12 | 3.55 | 3.33 | –
x1 = 0.422 | 6.64 | 5.77 | 4.96 | 4.25 | 3.96 | –
x1 = 0.4748 | 8.33 | 7.17 | 6.09 | 5.12 | 4.79 | –
x1 = 0.5318 | 10.3 | 8.94 | 7.5 | 6.17 | 5.77 | –
x1 = 0.5935 | 12.9 | 10.9 | 9.08 | 7.6 | 6.92 | –
x1 = 0.6607 | 16.5 | 13.7 | 11.3 | 9.37 | 8.38 | –
x1 = 0.7339 | 21.2 | 17.4 | 14.2 | 11.6 | 10.3 | –
x1 = 0.8141 | 27.4 | 22.2 | 17.9 | 14.4 | 12.8 | –
x1 = 0.9024 | 35.5 | 28.6 | 22.7 | 17.6 | 15.8 | –

OCCOCCOCCO + CS(C)=O
viscosity [mPa·s], 100 kPa
Conditions | 293.15 K | 298.15 K | 303.15 K | 308.15 K | 313.15 K | 318.15 K
x1 = 0.0266 | 2.4 | 2.27 | 2.01 | 1.87 | 1.72 | 1.53
x1 = 0.0547 | 2.72 | 2.64 | 2.36 | 2.14 | 1.97 | 1.74
x1 = 0.0842 | 3.09 | 3.02 | 2.69 | 2.42 | 2.22 | 1.95
x1 = 0.1155 | 3.58 | 3.49 | 3.08 | 2.77 | 2.52 | 2.21
x1 = 0.1485 | 4.15 | 4.03 | 3.55 | 3.17 | 2.87 | 2.5
x1 = 0.1822 | 4.76 | 4.64 | 4.05 | 3.61 | 3.24 | –
x1 = 0.2192 | 5.55 | 5.38 | 4.67 | 4.13 | 3.7 | –
x1 = 0.2575 | 6.44 | 6.21 | 5.36 | 4.7 | 4.19 | –
x1 = 0.3003 | 7.57 | 7.25 | 6.2 | 5.42 | 4.79 | –
x1 = 0.3422 | 8.76 | 8.35 | 7.09 | 6.15 | 5.42 | –
x1 = 0.3888 | 10.2 | 9.68 | 8.15 | 7.03 | 6.15 | –
x1 = 0.4385 | 11.9 | 11.2 | 9.36 | 8.03 | 6.98 | –
x1 = 0.4915 | 13.9 | 13 | 10.8 | 9.17 | 7.91 | –
x1 = 0.5521 | 16.4 | 15.2 | 12.5 | 10.6 | 9.07 | –
x1 = 0.6114 | 19.2 | 17.6 | 14.3 | 12 | 10.2 | –
x1 = 0.6754 | 22.3 | 20.3 | 16.4 | 13.7 | 11.5 | –
x1 = 0.7463 | 26 | 23.6 | 18.9 | 15.7 | 13.1 | –
x1 = 0.8233 | 30.6 | 27.5 | 21.8 | 17.9 | 14.9 | –
x1 = 0.9083 | 35.9 | 32 | 25.2 | 20.5 | 16.9 | –
